Experimental data: patent publication US9856268B2, “Lactam kinase inhibitors” (G1 Therapeutics, Inc., priority 2012, dated 2018)

Tests used:
[1] = molecular target: FMS (Homo sapiens, UniProt P07333); test: Kinase electrophoretic mobility shift assay, FMS; type: biochemical; conditions: compounds tested at 10 μM, average of n = 2, ATP at apparent Km; read-out: FMS activity (percent inhibition)
Procedure: (§1) Kinase activity is measured in vitro using electrophoretic mobility shift assay. The kinase reactions are assembled in 384 well plates in total volume of 25 μL. The reactions comprise: purified recombinant kinase enzyme, test compound, ATP (at apparent Km for each kinase), and fluorescently labeled peptide substrate. The reaction buffer composed of: 100 mM HEPES, pH7.5; 5 mM MgCl2; 1 mM DTT; 0.1% bovine serum albumin; 0.01% Triton X-100, and 1% DMSO (from compound). The reactions were incubated at room temperature for indicated time and quenched by addition of 45 μL of termination buffer (100 mM HEPES pH7.5; 0.01% Triton X-100; 30 mM EDTA). Substrate and product peptides in each sample were electrophoretically separated and detected using 12 channel LabChip3000® microfluidic capillary electrophoresis instrument (Caliper Life Sciences). The change in the relative fluorescence intensities of substrate and product peaks (reflecting enzyme activity) was measured. Capillary electrophoregramms were analyzed using HTS Well Analyzer software (Caliper Life Sciences). The kinase activity in each sample was determined as “product to sum” ratio (PSR):P/(S+P), where P is the peak height of the product peptide and S is the peak height of the substrate peptide. Negative control samples (0%-inhibition in the absence of inhibitor) and positive control samples (100%-inhibition, in the presence of 20 mM EDTA) were assembled in replicates of four and were used to calculate %-inhibition values for each compound at each concentration. Percent inhibition (Pinh) was determined using following equation: Pinh=(PSR0%−PSRinh)/(PSR0%−PSR100%)*100, where PSRinh is the product-sum ratio in the presence of inhibitor, PSR0% is the average product-sum ration in the absence of inhibitor and PSR100% is the average product-sum ratio in 100%-inhibition control samples. The IC50 values of reference inhibitors were determined by fitting the inhibition curves by a 4 parameter sigmoid dose-response model using XLfit 4 software (IDBS).

[2] = molecular target: JNK2 (Homo sapiens, UniProt P45984); test: Kinase electrophoretic mobility shift assay, JNK2; type: biochemical; conditions: compounds tested at 10 μM, average of n = 2, ATP at apparent Km; read-out: JNK2 activity (percent inhibition)
Procedure: as §1

[3] = molecular target: MNK2 (Homo sapiens, UniProt Q9HBH9); test: Kinase electrophoretic mobility shift assay, MNK2; type: biochemical; conditions: compounds tested at 10 μM, average of n = 2, ATP at apparent Km; read-out: MNK2 activity (percent inhibition)
Procedure: as §1

[4] = molecular target: MAPK3 (Homo sapiens, UniProt P27361); test: Kinase electrophoretic mobility shift assay, MAPK3; type: biochemical; conditions: compounds tested at 10 μM, average of n = 2, ATP at apparent Km; read-out: MAPK3 activity (percent inhibition)
Procedure: as §1

[5] = molecular target: GSK-3 beta (Homo sapiens, UniProt P49841); test: Kinase electrophoretic mobility shift assay, GSK-3 beta; type: biochemical; conditions: compounds tested at 10 μM, average of n = 2, ATP at apparent Km; read-out: GSK-3 beta activity (percent inhibition)
Procedure: as §1

[6] = molecular target: T1, HIPK4 (Homo sapiens, UniProt Q8NE63); test: Kinase electrophoretic mobility shift assay, HIPK4; type: biochemical; conditions: compounds tested at 10 μM, average of n = 2, ATP at apparent Km; read-out: HIPK4 activity (percent inhibition)
T1 sequence (Q8NE63 1-616): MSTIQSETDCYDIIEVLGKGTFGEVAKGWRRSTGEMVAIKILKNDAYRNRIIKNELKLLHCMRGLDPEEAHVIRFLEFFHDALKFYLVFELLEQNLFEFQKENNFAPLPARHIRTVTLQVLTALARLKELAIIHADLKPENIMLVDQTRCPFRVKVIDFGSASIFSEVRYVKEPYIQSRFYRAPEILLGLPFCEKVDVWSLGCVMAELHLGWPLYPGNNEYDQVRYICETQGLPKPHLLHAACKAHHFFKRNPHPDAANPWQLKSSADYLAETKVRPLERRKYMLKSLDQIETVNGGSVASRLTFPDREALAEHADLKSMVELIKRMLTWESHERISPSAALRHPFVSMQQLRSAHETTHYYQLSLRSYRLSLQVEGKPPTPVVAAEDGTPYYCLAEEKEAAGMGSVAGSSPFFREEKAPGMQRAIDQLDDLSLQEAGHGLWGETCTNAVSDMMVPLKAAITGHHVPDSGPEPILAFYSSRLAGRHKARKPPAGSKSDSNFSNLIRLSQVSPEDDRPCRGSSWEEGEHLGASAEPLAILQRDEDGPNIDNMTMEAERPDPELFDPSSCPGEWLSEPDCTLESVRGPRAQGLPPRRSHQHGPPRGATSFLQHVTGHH
Procedure: as §1

[7] = molecular target: T2, DYRK3 (Homo sapiens, UniProt O43781); test: Kinase electrophoretic mobility shift assay, DYRK3; type: biochemical; conditions: compounds tested at 10 μM, average of n = 2, ATP at apparent Km; read-out: DYRK3 activity (percent inhibition)
T2 sequence (O43781 1-588): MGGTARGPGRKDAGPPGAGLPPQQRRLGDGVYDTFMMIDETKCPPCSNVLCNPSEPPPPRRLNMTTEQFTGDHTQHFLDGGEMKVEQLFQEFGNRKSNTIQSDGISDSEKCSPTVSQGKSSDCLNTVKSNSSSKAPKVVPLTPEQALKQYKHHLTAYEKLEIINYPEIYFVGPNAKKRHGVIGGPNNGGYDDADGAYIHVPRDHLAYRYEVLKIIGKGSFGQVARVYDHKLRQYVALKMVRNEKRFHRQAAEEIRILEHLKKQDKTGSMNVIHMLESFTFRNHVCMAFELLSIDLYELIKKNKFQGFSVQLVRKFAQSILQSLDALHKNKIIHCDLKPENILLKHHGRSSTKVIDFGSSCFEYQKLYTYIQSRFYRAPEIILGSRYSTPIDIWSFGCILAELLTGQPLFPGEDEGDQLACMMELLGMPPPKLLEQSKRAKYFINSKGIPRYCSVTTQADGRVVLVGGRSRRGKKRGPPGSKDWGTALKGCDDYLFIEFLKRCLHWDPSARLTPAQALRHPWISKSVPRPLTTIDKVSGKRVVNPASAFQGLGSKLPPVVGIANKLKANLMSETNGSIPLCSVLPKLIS
Procedure: as §1

[8] = molecular target: T3, Aurora -A (Homo sapiens, UniProt O14965); test: Kinase electrophoretic mobility shift assay, Aurora -A; type: biochemical; conditions: compounds tested at 10 μM, average of n = 2, ATP at apparent Km; read-out: Aurora -A activity (percent inhibition)
T3 sequence (O14965 1-403): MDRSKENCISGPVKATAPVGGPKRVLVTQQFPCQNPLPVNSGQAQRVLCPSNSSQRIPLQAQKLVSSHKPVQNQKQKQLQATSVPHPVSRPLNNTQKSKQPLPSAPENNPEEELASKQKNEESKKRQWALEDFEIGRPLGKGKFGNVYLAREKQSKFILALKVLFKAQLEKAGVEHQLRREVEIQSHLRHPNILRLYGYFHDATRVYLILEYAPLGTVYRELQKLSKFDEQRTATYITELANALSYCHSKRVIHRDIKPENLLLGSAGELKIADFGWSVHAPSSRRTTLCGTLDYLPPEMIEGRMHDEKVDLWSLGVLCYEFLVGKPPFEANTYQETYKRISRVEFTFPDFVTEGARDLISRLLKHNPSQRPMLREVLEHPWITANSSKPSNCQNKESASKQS
Procedure: as §1

[9] = molecular target: P38 beta (Homo sapiens, UniProt Q15759); test: Kinase electrophoretic mobility shift assay, P38 beta; type: biochemical; conditions: compounds tested at 10 μM, average of n = 2, ATP at apparent Km; read-out: P38 beta activity (percent inhibition)
Procedure: as §1

[10] = tested on: treatment-refractory metastatic colorectal cancer; conditions: single agent, patients with treatment-refractory metastatic colorectal cancer, phase III; cited from earlier work

P38 beta, sequence (Q15759 whole entry): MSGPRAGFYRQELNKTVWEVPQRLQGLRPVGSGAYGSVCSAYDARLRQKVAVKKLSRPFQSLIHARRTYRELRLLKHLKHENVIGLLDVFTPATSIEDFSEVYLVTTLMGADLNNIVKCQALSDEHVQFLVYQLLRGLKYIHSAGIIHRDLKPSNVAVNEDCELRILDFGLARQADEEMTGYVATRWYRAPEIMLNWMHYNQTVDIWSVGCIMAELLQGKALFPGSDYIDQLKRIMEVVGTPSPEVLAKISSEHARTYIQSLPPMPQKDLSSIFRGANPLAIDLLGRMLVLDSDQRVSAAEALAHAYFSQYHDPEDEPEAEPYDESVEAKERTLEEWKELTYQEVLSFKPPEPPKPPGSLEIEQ
MAPK3, sequence (P27361 whole entry): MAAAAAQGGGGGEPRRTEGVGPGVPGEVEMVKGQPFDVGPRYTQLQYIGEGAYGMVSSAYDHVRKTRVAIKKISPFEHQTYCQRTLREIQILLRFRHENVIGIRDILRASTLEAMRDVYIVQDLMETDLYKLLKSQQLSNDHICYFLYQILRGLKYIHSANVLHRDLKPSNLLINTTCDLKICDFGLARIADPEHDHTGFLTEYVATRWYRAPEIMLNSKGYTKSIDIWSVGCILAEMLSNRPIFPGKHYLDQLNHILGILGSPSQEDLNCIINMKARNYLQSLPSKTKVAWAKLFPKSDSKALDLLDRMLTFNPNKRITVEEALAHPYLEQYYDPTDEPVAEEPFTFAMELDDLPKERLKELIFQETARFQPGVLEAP
GSK-3 beta, sequence (P49841 whole entry, species assumed): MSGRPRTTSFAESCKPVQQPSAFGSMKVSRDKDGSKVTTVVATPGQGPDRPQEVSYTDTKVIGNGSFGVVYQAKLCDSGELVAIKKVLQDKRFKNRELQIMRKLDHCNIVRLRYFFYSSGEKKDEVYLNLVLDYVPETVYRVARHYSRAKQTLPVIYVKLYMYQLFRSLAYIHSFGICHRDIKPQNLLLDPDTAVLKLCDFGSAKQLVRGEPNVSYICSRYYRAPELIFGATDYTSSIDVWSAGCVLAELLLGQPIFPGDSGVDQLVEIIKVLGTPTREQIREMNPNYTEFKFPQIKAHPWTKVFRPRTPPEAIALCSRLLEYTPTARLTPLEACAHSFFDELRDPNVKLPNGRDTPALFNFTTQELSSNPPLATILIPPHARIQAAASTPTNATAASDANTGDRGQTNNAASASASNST
JNK2, sequence (P45984 whole entry, species assumed): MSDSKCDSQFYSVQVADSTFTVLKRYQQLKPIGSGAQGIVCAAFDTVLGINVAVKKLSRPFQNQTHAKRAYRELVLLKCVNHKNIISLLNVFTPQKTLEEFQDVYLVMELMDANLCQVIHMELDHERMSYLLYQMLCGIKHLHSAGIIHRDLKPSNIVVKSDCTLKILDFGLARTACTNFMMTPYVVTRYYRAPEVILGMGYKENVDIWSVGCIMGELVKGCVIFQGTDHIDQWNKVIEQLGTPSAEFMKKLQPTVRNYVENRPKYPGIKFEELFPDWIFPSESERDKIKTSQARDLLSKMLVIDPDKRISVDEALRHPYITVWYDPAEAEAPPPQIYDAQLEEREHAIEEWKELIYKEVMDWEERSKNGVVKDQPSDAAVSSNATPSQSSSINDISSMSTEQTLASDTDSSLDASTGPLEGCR
FMS, sequence (P07333 20-972, species assumed): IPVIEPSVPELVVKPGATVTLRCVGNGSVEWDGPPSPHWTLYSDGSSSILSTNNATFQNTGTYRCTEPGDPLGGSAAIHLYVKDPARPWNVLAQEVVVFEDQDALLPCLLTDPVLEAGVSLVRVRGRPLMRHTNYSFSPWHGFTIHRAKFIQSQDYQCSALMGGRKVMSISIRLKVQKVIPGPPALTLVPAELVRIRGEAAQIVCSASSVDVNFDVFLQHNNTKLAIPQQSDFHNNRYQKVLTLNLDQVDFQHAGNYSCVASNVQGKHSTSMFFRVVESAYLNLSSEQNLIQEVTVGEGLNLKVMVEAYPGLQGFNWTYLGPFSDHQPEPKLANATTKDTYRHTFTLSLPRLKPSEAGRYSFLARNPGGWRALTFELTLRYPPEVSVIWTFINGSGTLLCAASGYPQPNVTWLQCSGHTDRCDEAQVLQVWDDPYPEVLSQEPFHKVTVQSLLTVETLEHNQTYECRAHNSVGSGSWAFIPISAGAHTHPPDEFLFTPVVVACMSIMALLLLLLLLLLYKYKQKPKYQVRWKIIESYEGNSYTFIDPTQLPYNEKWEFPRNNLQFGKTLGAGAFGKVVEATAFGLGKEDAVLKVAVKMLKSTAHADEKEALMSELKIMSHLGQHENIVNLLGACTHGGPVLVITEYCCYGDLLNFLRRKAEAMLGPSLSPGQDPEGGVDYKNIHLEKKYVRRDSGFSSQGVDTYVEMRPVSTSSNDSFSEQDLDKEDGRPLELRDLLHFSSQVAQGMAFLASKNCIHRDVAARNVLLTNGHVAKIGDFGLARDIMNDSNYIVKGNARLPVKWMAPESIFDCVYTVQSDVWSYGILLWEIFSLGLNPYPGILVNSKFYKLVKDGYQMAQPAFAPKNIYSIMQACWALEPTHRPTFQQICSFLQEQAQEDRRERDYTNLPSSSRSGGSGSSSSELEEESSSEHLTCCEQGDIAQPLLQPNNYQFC
MNK2, sequence (Q9HBH9 whole entry, species assumed): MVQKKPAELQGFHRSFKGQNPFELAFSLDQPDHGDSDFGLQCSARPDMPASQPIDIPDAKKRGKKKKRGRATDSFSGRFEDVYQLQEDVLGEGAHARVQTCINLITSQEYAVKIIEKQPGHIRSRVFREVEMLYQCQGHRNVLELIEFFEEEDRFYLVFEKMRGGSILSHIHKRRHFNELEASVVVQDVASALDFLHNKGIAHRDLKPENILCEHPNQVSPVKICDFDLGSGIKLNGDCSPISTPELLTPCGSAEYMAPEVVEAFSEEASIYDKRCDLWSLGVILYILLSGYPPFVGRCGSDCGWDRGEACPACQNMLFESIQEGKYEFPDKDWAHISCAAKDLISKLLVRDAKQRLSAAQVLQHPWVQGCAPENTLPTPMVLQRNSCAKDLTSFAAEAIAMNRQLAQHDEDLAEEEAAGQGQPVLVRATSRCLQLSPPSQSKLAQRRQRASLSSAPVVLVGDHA

SMILES | inhibition at 10 µM [1] | inhibition at 10 µM [2] | inhibition at 10 µM [3] | inhibition at 10 µM [4] | inhibition at 10 µM [5] | inhibition at 10 µM [6] | inhibition at 10 µM [7] | inhibition at 10 µM [8] | inhibition at 10 µM [9] | disease progression [10] | overall survival [10]
Cc1ccccc1-c1c2n(c3nc(Nc4ccc(N5CCOCC5)cc4)ncc13)CCNC2=O [Compd 1] | < 50% | < 50% | < 50% | < 50% | < 50% | < 50% | < 50% | < 50% | < 50% | – | –
Cc1ccccc1-c1c2n(c3nc(N[C@H]4CC[C@H](O)CC4)ncc13)CCNC2=O [Compd 2] | < 50% | 71 to 90% | < 50% | 50 to 70% | < 50% | < 50% | < 50% | < 50% | < 50% | – | –
O=C1NCCn2c1cc1cnc(N[C@H]3CC[C@H](O)CC3)nc12 [Compd 3] | < 50% | > 90% | < 50% | 71 to 90% | 71 to 90% | 71 to 90% | 71 to 90% | < 50% | < 50% | – | –
CC1(C)CNC(=O)c2cc3cnc(N[C@H]4CC[C@H](O)CC4)nc3n21 [Compd 4] | > 90% | > 90% | 71 to 90% | 71 to 90% | > 90% | > 90% | 71 to 90% | 50 to 70% | 50 to 70% | – | –
CCC1Cn2c(cc3cnc(N[C@H]4CC[C@H](O)CC4)nc32)C(=O)N1 (some centres unmarked) [Compd 5] | 71 to 90% | > 90% | 50 to 70% | 71 to 90% | > 90% | > 90% | 71 to 90% | < 50% | 50 to 70% | – | –
O=C1NC2(CCCC2)Cn2c1cc1cnc(N[C@H]3CC[C@H](O)CC3)nc12 [Compd 6] | 50 to 70% | > 90% | 50 to 70% | > 90% | > 90% | > 90% | 71 to 90% | 50 to 70% | 50 to 70% | – | –
O=C1NCC2(CCCC2)n2c1cc1cnc(N[C@H]3CC[C@H](O)CC3)nc12 [Compd 7] | 71 to 90% | > 90% | 71 to 90% | > 90% | > 90% | > 90% | > 90% | > 90% | 71 to 90% | – | –
CNC(=O)c1cc(Oc2ccc(NC(=O)Nc3ccc(Cl)c(C(F)(F)F)c3)c(F)c2)ccn1 [regorafenib] | – | – | – | – | – | – | – | – | – | delayed disease progression | significantly improved overall survival
